Experimental data as given in ChEMBL document CHEMBL4808177, “Use of Intramolecular 1,5-Sulfur-Oxygen and 1,5-Sulfur-Halogen Interactions in the Design of N-Methyl-5-aryl-N-(2,2,6,6-tetramethylpiperidin-4-yl)-1,3,4-thiadiazol-2-amine SMN2 Splicing Modulators” (J Med Chem, 2021).
In brackets after ≈: the same amount, converted by molar mass.

Columns and labels:
[1] = Modulation of SMN2 splicing activity in myoblast cell line derived from the SMNdelta7 mouse model assessed as increase in SMN level treated for 24 hrs by ELISA relative to control; assay type: functional, Primary myoblast
[2] = Solubility of the compound at pH 6.8 by high-throughput miniaturized shake flask solubility assay; assay type: physicochemical; conditions: buffer
[3] = Modulation of SMN2 splicing in myoblast cell line derived from the SMNdelta7 mouse model assessed as increase in SMN level measured as fold activation treated for 24 hrs by ELISA; assay type: functional, Primary myoblast
[4] = Intrinsic clearance in rat liver microsomes; assay type: ADME, Microsome; conditions: read-out: CLH
[5] = Apparent permeability from basolateral to apical side in MDCK-MDR1 cells; assay type: ADME, cell-based, Canis lupus familiaris; conditions: dog
[6] = Apparent permeability from apical to basolateral side in MDCK-MDR1 cells; assay type: ADME, cell-based, Canis lupus familiaris; conditions: dog
[7] = Drug uptake in Sprague-Dawley rat brain at 3 mg/kg, po measured after 7 hrs by HPLC-MS/MS analysis; assay type: ADME, organism-based; conditions: read-out: Drug uptake
[8] = Drug uptake in SMN C/+ allele mouse plasma at 50 mg/kg, po measured after 4 hrs; assay type: ADME, organism-based
[9] = In vivo modulation of SMN2 splicing activity in SMN C/+ allele mouse model assessed as fold increase in full length SMN protein level in brain at 50 mg/kg, po once daily for 5 days relative to control; assay type: functional; conditions: time 5 day
[10] = Drug uptake in SMN C/+ allele mouse brain at 50 mg/kg, po measured after 4 hrs; assay type: ADME, organism-based; conditions: read-out: Drug uptake
[11] = Intrinsic clearance in mouse liver microsomes; assay type: ADME, Microsome; conditions: read-out: CLH
[12] = Half life in Sprague-Dawley rat at 1 mg/kg, iv and 3 mg/kg, po measured up to 7 hrs by HPLC-MS/MS analysis; assay type: ADME, organism-based; conditions: in vivo
[13] = Apparent permeability across basolateral to apical side in human Caco-2 cells; assay type: ADME, cell-based
[14] = Apparent permeability across apical to basolateral side in human Caco-2 cells; assay type: ADME, cell-based
[15] = AUC (extrapolated) in Sprague-Dawley rat at 3 mg/kg, po measured up to 7 hrs by HPLC-MS/MS analysis; assay type: ADME, organism-based; set-up: route oral, dose 3 mg/kg, time <=7; conditions: in vivo
[16] = Volume of distribution at steady state in Sprague-Dawley rat at 1 mg/kg, iv and 3 mg/kg, po measured up to 7 hrs by HPLC-MS/MS analysis; assay type: ADME, organism-based; conditions: in vivo, read-out: Vdss
[17] = Cmax in Sprague-Dawley rat at 1 mg/kg, iv and 3 mg/kg, po measured up to 7 hrs by HPLC-MS/MS analysis; assay type: ADME, organism-based; set-up: dose 3 mg/kg, time <=7; conditions: in vivo
[18] = Clearance in Sprague-Dawley rat at 1 mg/kg, iv and 3 mg/kg, po measured up to 7 hrs by HPLC-MS/MS analysis; assay type: ADME, organism-based; conditions: in vivo

SMILES	fold change (FC) [1]	solubility thermodynamic [2] [µM]	EC50 [3] [nM]	microsomal CLint [4] [µL/min/mg]	other results
CN(c1nnc(-c2cc3cc(C#N)ccc3s2)s1)C1CC(C)(C)NC(C)(C)C1	2.7	170 (≈ 70 µg/mL)	540	12	–
Cc1cc(-c2ccn(C)c(=O)c2)ccc1-c1nnc(N(C)C2CC(C)(C)NC(C)(C)C2)s1	2.6	–	1100	–	–
CN(c1nnc(-c2cc(F)c(-c3cn[nH]c3)cc2F)s1)C1CC(C)(C)NC(C)(C)C1	3.1	122 (≈ 52.8 µg/mL)	20	48	Papp B→A [5]: 16 ×10⁻⁶ cm/s; Papp A→B [6]: 3 ×10⁻⁶ cm/s; concentration at 7 h [7]: 141 nM
CN(c1nnc(-c2cc3ccccc3s2)s1)C1CC(C)(C)NC(C)(C)C1	1.7	> 1000	4470	< 3	–
CN(c1nnc(-c2ccc(-c3cnn(C)c3)cc2C(F)(F)F)s1)C1CC(C)(C)NC(C)(C)C1	1.3	–	> 30000	–	–
CN(c1nnc(-c2ccc(-c3cn[nH]c3)c(F)c2F)s1)C1CC(C)(C)NC(C)(C)C1	3	48 (≈ 20.8 µg/mL)	33	46	concentration at 4 h [8]: 3600 nM; fold change (FC) [9]: 1.6; concentration at 4 h [10]: 2500 nM; Papp B→A [5]: 8 ×10⁻⁶ cm/s; Papp A→B [6]: 3 ×10⁻⁶ cm/s; concentration at 7 h [7]: 498 nM
CN(c1nnc(-c2ccc(-n3cccn3)cc2)s1)C1CC(C)(C)NC(C)(C)C1	2.8	–	1100	–	–
CN(c1nnc(-c2ccc(-c3cn[nH]c3)cc2Cl)s1)C1CC(C)(C)NC(C)(C)C1	2.5	44000 (≈ 19000 µg/mL)	34	24	Papp B→A [5]: 12 ×10⁻⁶ cm/s; Papp A→B [6]: 3 ×10⁻⁶ cm/s; concentration at 7 h [7]: 240 nM
CN(c1nnc(-c2ccc(-c3cn[nH]c3)cc2O)s1)C1CC(C)(C)NC(C)(C)C1	2.5	–	400	–	–
COc1cc(-c2ccn(C)c(=O)c2)ccc1-c1nnc(N(C)C2CC(C)(C)NC(C)(C)C2)s1	3.2	–	130	–	–
CN(c1nnc(-c2sc3ccc(C#N)cc3c2Cl)s1)C1CC(C)(C)NC(C)(C)C1	2.5	51 (≈ 22.7 µg/mL)	92	< 25	–
CN(c1nnc(-c2c(O)cc(-c3cn[nH]c3)cc2Cl)s1)C1CC(C)(C)NC(C)(C)C1	2.5	220 (≈ 98.3 µg/mL)	3	–	microsomal CLint [11]: 116 µL/min/mg
CN(c1nnc(-c2ccc(C#N)cc2O)s1)C1CC(C)(C)NC(C)(C)C1	1.9	–	8800	–	–
CN(c1nnc(-c2cc(F)c(-c3cn[nH]c3)cc2Cl)s1)C1CC(C)(C)NC(C)(C)C1	3.2	34 (≈ 15.3 µg/mL)	48	54	Papp B→A [5]: 23 ×10⁻⁶ cm/s; Papp A→B [6]: 4 ×10⁻⁶ cm/s; concentration at 7 h [7]: 185 nM
CN(c1nnc(-c2ccc(-c3cn[nH]c3)cc2F)s1)C1CC(C)(C)NC(C)(C)C1	3.1	> 1000	43	59	Papp B→A [5]: 15 ×10⁻⁶ cm/s; Papp A→B [6]: 4 ×10⁻⁶ cm/s; concentration at 7 h [7]: 66 nM
CN(c1nnc(-c2ccc(-c3ccn(C)c(=O)c3)cc2O)s1)C1CC(C)(C)NC(C)(C)C1	3.4	–	61	–	half-life [12]: 1.3 h; Papp B→A [13]: 6.8 ×10⁻⁶ cm/s; Papp A→B [14]: 3.7 ×10⁻⁶ cm/s; AUC at 7 h [15]: 0.227 µM·h; Vd [16]: 10.7 L/kg; Cmax [17]: 38 nM; clearance [18]: 163 mL/min/kg
COc1cc(C#N)ccc1-c1nnc(N(C)C2CC(C)(C)NC(C)(C)C2)s1	2.2	–	1000	–	–
CN(c1nnc(-c2ccc(-c3cnn(C)c3)cn2)s1)C1CC(C)(C)NC(C)(C)C1	2.3	–	680	–	–
COc1cc(-c2cnn(C)c2)ccc1-c1nnc(N(C)C2CC(C)(C)NC(C)(C)C2)s1	2.5	–	44	–	–
CN(c1nnc(-c2cc(-n3cccn3)ccc2O)s1)C1CC(C)(C)NC(C)(C)C1	2.3	–	1000	–	–
COc1cc(-n2cccn2)ccc1-c1nnc(N(C)C2CC(C)(C)NC(C)(C)C2)s1	2.5	–	62	–	half-life [12]: 1.9 h; Papp B→A [13]: 6.9 ×10⁻⁶ cm/s; Papp A→B [14]: 13.8 ×10⁻⁶ cm/s; AUC at 7 h [15]: 0.895 µM·h; Vd [16]: 10.9 L/kg; Cmax [17]: 221 nM; clearance [18]: 72 mL/min/kg
CN(c1nnc(-c2c(O)cc(-c3cn[nH]c3)cc2F)s1)C1CC(C)(C)NC(C)(C)C1	2.6	–	6	–	solubility [2]: Insoluble; Papp B→A [5]: 41 ×10⁻⁶ cm/s; microsomal CLint [11]: 50 µL/min/mg; Papp A→B [6]: 10 ×10⁻⁶ cm/s
CN(c1nnc(-c2sc3ccccc3c2Cl)s1)C1CC(C)(C)NC(C)(C)C1	2.8	240 (≈ 101 µg/mL)	530	20	–
CN(c1nnc(-c2ccc(-c3cnn(C)c3)cc2O)s1)C1CC(C)(C)NC(C)(C)C1	3.1	–	32	–	half-life [12]: 2 h; Papp B→A [13]: 2.5 ×10⁻⁶ cm/s; Papp A→B [14]: 2.4 ×10⁻⁶ cm/s; AUC at 7 h [15]: 0.554 µM·h; Vd [16]: 7 L/kg; Cmax [17]: 50 nM; clearance [18]: 71 mL/min/kg
CN(c1ccc(-c2cc3ccccc3s2)nn1)C1CC(C)(C)NC(C)(C)C1	–	980 (≈ 373 µg/mL)	–	23	–
CN(c1nnc(-c2ccc(-n3cccn3)cc2O)s1)C1CC(C)(C)NC(C)(C)C1	2.8	–	170	–	–
CN(c1nnc(-c2ccc(-c3ccn(C)c(=O)c3)cc2OC(F)(F)F)s1)C1CC(C)(C)NC(C)(C)C1	2.2	–	900	–	–
CN(c1nnc(-c2c(O)cc(-c3cn[nH]c3)c(F)c2F)s1)C1CC(C)(C)NC(C)(C)C1	2.7	150 (≈ 67.3 µg/mL)	3	–	Papp B→A [5]: 23 ×10⁻⁶ cm/s; microsomal CLint [11]: 67 µL/min/mg; Papp A→B [6]: 8 ×10⁻⁶ cm/s
COc1cc(-c2cn[nH]c2)ccc1-c1nnc(N(C)C2CC(C)(C)NC(C)(C)C2)s1	2.9	–	38	–	–
